Source: US5248684A, “Certain 2-oxo-quinoline carboxylates or corresponding carboxamides useful as anti-emetics and suppressants of migraine” (Kyowa Hakko Kogyo Co., Ltd., priority 1990, dated 1993)

What was measured:
ddY strain male mice = test: Acute toxicity (MLD, Minimum Lethal Dose); assay type: in vivo; details: 7 days observation
Experimental: The test compound was orally and intraperitoneally administered to ddY strain male mice weighing 20 to 25 g. MLD (Minimum Lethal Dose) was determined by observing the mortality for 7 days after the administration.

[1] = system: Cisplatin-induced vomiting; test: Activity against CisPlatin-induced vomiting; assay type: in vivo, Suncus murinus; details: 30 min before Cisplatin 40 mg/kg i.p.; for Number of Vomiting (Episodes) (mean ± S.E.M.): 5 to 120 min, control 28.0 ± 6.7; for Latency (mean ± S.E.M.): time to first vomiting, control 35.1 ± 4.4
Experimental: b) Activity against CisPlatin-induced vomiting
Female and male Suncus murinus animals weighing 23 to 68 g were used, one group consisting of 5 to 10 animals. According to the method of Matsuki et al. (Japan J. Pharmacol., 48, 303 (1988)], the animals were isolated in metal mesh cage (one animal/one cage). One hour after, the test compound or physiological saline (control) was intraperitoneally administered (i.p.) in a volume of 0.1 ml/10 g of body weight. Further 30 minutes after administration of the test compound, Cisplatin (40 mg/kg) was intraperitoneally administered. After administration of Cisplatin, a time period (latency) for the first vomiting and the number of frequencies (episodes) of vomiting caused in the period of 5 to 120 minutes after administration were determined. The latency and the number of frequencies in the test compound administered group were compared with those in the control group. The test of significance was performed by Student's t-test.

Row | Compound | MLD (Minimum Lethal Dose) (ddY strain male mice; i.p.) | MLD (Minimum Lethal Dose) (ddY strain male mice; p.o.) | Number of Vomiting (Episodes) (mean ± S.E.M.) ([1]; 0.1 mg/kg i.p.) | Latency (mean ± S.E.M.) ([1]; 0.1 mg/kg i.p.) | Number of Vomiting (Episodes) (mean ± S.E.M.) ([1]; 0.5 mg/kg i.p., *p < 0.05) | Latency (mean ± S.E.M.) ([1]; 0.5 mg/kg i.p., *p < 0.05)
1 | CC(C)n1c(=O)cc(C(=O)O[C@H]2C[C@H]3CC[C@@H](C2)N3C)c2ccccc21 [Compound 3Sa, Endo-(8-methyl-8-azabicyclo[3.2.1]oct-3-yl)l-isopropyl-2-oxo-1,2-dihydro-4-quinolinecarboxylate] | 100 mg/kg | 200 mg/kg | – | – | – | –
2 | CN1[C@@H]2CC[C@H]1C[C@@H](OC(=O)c1cc(=O)n(-c3ccccc3)c3ccccc13)C2 [Compound 19Sa, Endo-(8-methyl-8-azabicyclo[3.2.1]oct-3-yl) 2-oxo-1-phenyl-1,2-dihydro-4-quinolinecarboxylate] | 100 mg/kg | 200 mg/kg | – | – | – | –
3 | CCCCn1c(=O)cc(C(=O)N[C@@H]2C[C@H]3CC[C@@H](C2)N3C)c2ccccc21 [Compound 9Sa, Exo-N-(8-methyl-8-azabicyclo[3.2.1]oct-3-yl)-1-(n-butyl)-2-oxo-1,2-dihydro-4-quinolinecarboxamide] | 100 mg/kg | > 300 mg/kg | – | – | – | –
4 | CCCCn1c(=O)c(CC)c(C(=O)O[C@H]2C[C@H]3CC[C@@H](C2)N3C)c2ccccc21 [Compound 20Sa, Endo-(8-methyl-8-azabicyclo[3.2.1)oct-3-yl) 1-(n-butyl)-3-ethyl-2-oxo-1,2-dihydro-4-quinolinecarboxylate] | 100 mg/kg | 200 mg/kg | – | – | – | –
5 | CCCCn1c(=O)c(C(=O)N[C@H]2C[C@H]3CC[C@@H](C2)N3C)c(O)c2cccnc21 [Compound 32Sa, Endo-N-(8-methyl-azabicyclo[3.2.1]oct-3-yl)-1-(butyl)-4-hydroxy-2-oxo-1,2-dihydro-1,8-naphthyridine-3-carboxamide] | 100 mg/kg | > 300 mg/kg | – | – | – | –
6 | CN1[C@@H]2CC[C@H]1C[C@@H](OC(=O)c1cc(=O)n(Cc3ccccc3)c3ccccc13)C2 [Compound 18Sa, Endo-(8-methyl-8-azabicyclo[3.2.1]oct-3-yl) 1-benzyl-2-oxo-1,2-dihydro-4-quinolinecarboxylate] | 100 mg/kg | > 300 mg/kg | – | – | – | –
7 | CC(C)CCn1c(=O)cc(C(=O)O[C@H]2C[C@H]3CC[C@@H](C2)N3C)c2ccccc21 [Compound 15Sa, Endo-(8-methyl-8-azabicyclo[3.2.1]oct-3-yl) 1-isopentyl-2-oxo-1,2-dihydro-4-quinolinecarboxylate] | 100 mg/kg | 300 mg/kg | – | – | – | –
8 | CN1[C@@H]2CC[C@H]1C[C@@H](OC(=O)c1c(O)c3cccnc3n(-c3ccccc3)c1=O)C2 [Compound 24Sa, Endo-(8-methyl-8-azabicyclo[3.2.1]oct-3-yl) 4-hydroxy-2-oxo-1-phenyl-1,2-dihydro-1,8-naphthylidine-3-carboxylate] | > 100 mg/kg | > 300 mg/kg | – | – | – | –
9 | CCCCn1c(=O)cc(C(=O)O[C@H]2C[C@H]3CC[C@@H](C2)N3C)c2ccccc21 [Compound 1Sa, Endo-(8-methyl-8-azabicyclo[3.2.1]oct-3-yl)-1-(n-butyl)-2-oxo-1,2-dihydro-4-quinolinecarboxylate] | 100 mg/kg | 200 mg/kg | 18.0 ± 1.6 Episodes | 44.3 ± 2.0 min | 6.8 ± 2.0 Episodes | 71.5 ± 12.9 min
10 | CCCCn1c(=O)cc(C(=O)N[C@H]2C[C@H]3CCC[C@@H](C2)N3C)c2ccccc21 [Compound 10Sa, Endo-N-(9-methyl-9-azabicyclo[3.3.1]non-3-yl)-1-(n-butyl)-2-oxo-1,2-dihydro-4-quinolinecarboxamide] | 100 mg/kg | 300 mg/kg | – | – | – | –
11 | CCCCCCn1c(=O)cc(C(=O)O[C@H]2C[C@H]3CC[C@@H](C2)N3C)c2ccccc21 [Compound 17Sa, Endo-(8-methyl-8-azabicyclo[3.2.1]oct-3-yl) 1-(n-hexyl)-2-oxo-1,2-dihydro-4-quinolinecarboxylate] | 100 mg/kg | > 300 mg/kg | – | – | – | –
12 | CC(C)Cn1c(=O)cc(C(=O)O[C@H]2C[C@H]3CC[C@@H](C2)N3C)c2ccccc21 [Compound 14Sa, Endo-(8-methyl-8-azabicyclo[3.2.1]oct-3-yl) 1-isobutyl-2-oxo-1,2-dihydro-4-quinolinecarboxylate] | 50 mg/kg | 200 mg/kg | – | – | – | –
13 | CCCn1c(=O)cc(C(=O)N[C@H]2C[C@H]3CC[C@@H](C2)N3C)c2ccccc21 [Compound 7Sa, Endo-N-(8-methyl-8-azabicyclo[3.2.1]oct-3-yl)-1-(n-propyl)-2-oxo-1,2-dihydro-4-quinolinecarboxamide] | > 100 mg/kg | > 300 mg/kg | – | – | – | –
14 | CCCn1c(=O)cc(C(=O)O[C@H]2C[C@H]3CC[C@@H](C2)N3C)c2ccccc21 [Compound 2Sa, Endo-(8-methyl-B-azabicyclo[3.2.1]oct-3-yl)2-oxo-l-(n-propyl)-1,2-dihydro-4-quinolinecarboxylate] | 100 mg/kg | 200 mg/kg | – | – | – | –
15 | CCn1c(=O)cc(C(=O)O[C@H]2C[C@H]3CC[C@@H](C2)N3C)c2ccccc21 [Compound 13Sa, Endo-(8-methyl-8-azabicyclo[3.2.1]oct-3-yl) 1-ethyl-2-oxo-1,2-dihydro-4-quinolinecarboxylate] | 100 mg/kg | 200 mg/kg | – | – | – | –
16 | CCCCn1c(=O)cc(C(=O)N[C@H]2C[C@H]3CC[C@@H](C2)N3C)c2ccccc21 [Compound 6Sa, Endo-N-(8-methyl-8-azabicyclo[3.2.1]oct-3-yl)-1-(n-butyl)-2-oxo-1,2-dihydro-4-quinolinecarboxamide] | > 100 mg/kg | > 300 mg/kg | – | – | – | –
17 | CCCCn1c(=O)c(O)c(C(=O)N[C@H]2C[C@H]3CC[C@@H](C2)N3C)c2ccccc21 [Compound 29Sa, Endo-N-(8-methyl-8-azabicyclo[3.2.1]oct-3-yl)-1-n-butyl-3-hydroxy-2-oxo-1,2-dihydro-4-quinolinecarboxamide] | > 100 mg/kg | > 300 mg/kg | – | – | – | –
18 | CCCCCn1c(=O)cc(C(=O)O[C@H]2C[C@H]3CC[C@@H](C2)N3C)c2ccccc21 [Compound 16Sa, Endo-(8-methyl-8-azabicyclo[3.2.1]oct-3-yl)2-oxo-1-n-pentyl-1,2-dihydro-4-quinolinecarboxylate] | 100 mg/kg | 300 mg/kg | – | – | – | –
19 | CN1[C@@H]2CC[C@H]1C[C@@H](NC(=O)c1cc(=O)n(C)c3ccccc13)C2 [Compound 8Sa, Endo-N-(8-methyl-8-azabicyclo[3.2.1]oct-3-yl)-1-methyl-2-oxo-1,2-dihydro-4-quinolinecarboxamide] | > 100 mg/kg | > 300 mg/kg | – | – | – | –
20 | CN1[C@@H]2CC[C@H]1C[C@@H](NC(=O)c1c(O)c3ccccc3n(-c3ccccc3)c1=O)C2 [Compound 30Sa, Endo-N-(8-methyl-8-azabicyclo[3.2.1]oct-3-yl)-4-hydroxy-2-oxo-1-phenyl-1,2-dihydro-3-quinolinecarboxamide] | 100 mg/kg | > 300 mg/kg | – | – | – | –
21 | CCCCn1c(=O)c(C(=O)N[C@H]2C[C@H]3CC[C@@H](C2)N3C)c(O)c2ccccc21 [Compound 11Sa, Endo-N-(8-methyl-8-azabicyclo[3.2.1]oct-3-yl)-1-(n-butyl)-4-hydroxy-2-oxo-1,2-dihydro-3-quinolinecarboxamide] | > 100 mg/kg | > 300 mg/kg | – | – | – | –
